From patent US20220313698A1, “MODULATORS OF CYSTIC FIBROSIS TRANSMEMBRANE CONDUCTANCE REGULATOR” (Vertex Pharmaceuticals Incorporated, priority 2019, published 2022) come the findings set out here.

For orientation: EC50 means the concentration that produces a half-maximal response.

The target in this test is CFTR-mediated chloride transport (Homo sapiens, UniProt P13569). Briefly: Corrector Assay A - membrane potential dye assay (enteroid cells). The note with it: for Corrector Assay A % activity: % of chloride transport of triple combination control (1 μM (14S)-dispiro macrocycle + 3 μM tezacaftor + 300 nM ivacaftor); for EC50: read-out: Corrector Assay A EC50, human intestinal enteroid cells, 18-24 h incubation, acute 10 μM forskolin + 300 nM ivacaftor.

Experimental: Base medium (ADF+++) consisted of Advanced DMEM/Ham's F12, 2 mM Glutamax, 10 mM HEPES, 1 μg/ml penicillin/streptomycin.
Intestinal enteroid maintenance medium (IEMM) consisted of ADF+++, 1×B27 supplement, 1×N2 supplement, 1.25 mM N-acetyl cysteine, 10 mM Nicotinamide, 50 ng/mL hEGF, 10 nM Gastrin, 1 μg/mL hR-spondin-1, 100 ng/mL hNoggin, TGF-b type 1 inhibitor A-83-01, 100 μg/mL Primocin, 10 μM P38 MAPK inhibitor SB202190.
Bath 1 Buffer consisted of 1 mM MgCl2, 160 mM NaCl, 4.5 mM KCl, 10 mM HEPES, 10 mM Glucose, 2 mM CaCl2).
Chloride Free Buffer consisted of 1 mM Magnesium Gluconate, 2 mM Calcium Gluconate, 4.5 mM Potassium Gluconate, 160 mM Sodium Gluconate, 10 mM HEPES, 10 mM Glucose.
Bath 1 Dye Solution consisted of Bath 1 Buffer, 0.04% Pluronic F127, 20 μM Methyl Oxonol, 30 μM CaCCinh-A01, 30 μM Chicago Sky Blue.
Chloride Free Dye Solution consisted of Chloride Free Buffer, 0.04% Pluronic F127, 20 μM Methyl Oxonol, 30 μM CaCCinh-A01, 30 μM Chicago Sky Blue.
Chloride Free Dye Stimulation Solution consisted of Chloride Free Dye Solution, 10 μM forskolin, 100 μM IBMX, and 300 nM Ivacaftor.
Cells were recovered in cell recovery solution, collected by centrifugation at 650 rpm for 5 min at 4° C., resuspended in TryPLE and incubated for 5 min at 37° C. Cells were then collected by centrifugation at 650 rpm for 5 min at 4° C. and resuspended in IEMM containing 10 μM ROCK inhibitor (RI). The cell suspension was passed through a 40 μm cell strainer and resuspended at 1×10^6 cells/mL in IEMM containing 10 μM RI. Cells were seeded at 5000 cells/well into multi-well plates and incubated for overnight at 37° C., 95% humidity and 5% CO2 prior to assay.
Briefly, cells were washed 5 times in Bath 1 Buffer. Bath 1 Dye Solution was added and the cells were incubated for 25 min at room temperature. Following dye incubation, cells were washed 3 times in Chloride Free Dye Solution. Chloride transport was initiated by addition of Chloride Free Dye Stimulation Solution and the fluorescence signal was read for 15 min. The CFTR-mediated chloride transport for each condition was determined from the AUC of the fluorescence response to acute forskolin and 300 nM N-[2,4-bis(1,1-dimethylethyl)-5-hydroxyphenyl]-1,4-dihydro-4-oxoquinoline-3-carboxamide stimulation. Chloride transport was then expressed as a percentage of the chloride transport following treatment with 1 μM (14S)-8-[3-(2-{Dispiro[2.0.2.1]heptan-7-yl}ethoxy)-1H-pyrazol-1-yl]-12,12-dimethyl-2λ^6-thia-3,9,11,18,23-pentaazatetracyclo[17.3.1.111,14.05,10]tetracosa-1(22),5,7,9,19(23),20-hexaene-2,2,4-trione, 3 μM (R)-1-(2,2-difluorobenzo[d][1,3]dioxol-5-yl)-N-(1-(2,3-dihydroxypropyl)-6-fluoro-2-(1-hydroxy-2-methylpropan-2-yl)-1H-indol-5-yl)cyclopropanecarboxamide and 300 nM acute N-[2,4-bis(1,1-dimethylethyl)-5-hydroxyphenyl]-1,4-dihydro-4-oxoquinoline-3-carboxamide triple combination control (% Activity).

Consider `CC(C)(C)c1ccc2c(n1)N1C[C@@H](CC[C@@H](c3cc(C4=CCOCC4)ccn3)Nc3cccc(n3)S(=O)(=O)NC2=O)CC1(C)C` (single isomer, unassigned) [Compound 126], for which the “Corrector Assay A % activity” value is recorded as “+++ (+++ is >60%)” and the EC50 was below 1000 nM.

In the case of `CC1(C)C[C@@H]2CC[C@H](c3cccc(C(F)(F)F)n3)Nc3cccc(n3)S(=O)(=O)NC(=O)c3ccc(-c4cccc(F)n4)nc3N1C2` [Compound 308, (14S,17R)-8-(6-fluoropyridin-2-yl)-12,12-dimethyl-17-[6-(trifluoromethyl)pyridin-2-yl]-2λ^6-thia-3,9,11,18,23-pentaazatetracyclo[17.3.1.111,14.05,10]tetracosa-1(22),5,7,9,19(23),20-hexaene-2,2,4-trione], the “Corrector Assay A % activity” value is listed as “++ (++ is 30-60%)” and the EC50 is below 1000 nM.

As for `CC(C)(C)COc1ccn(-c2ccc3c(n2)N2C[C@@H](CC[C@H](c4ccccn4)Nc4cccc(n4)S(=O)(=O)NC3=O)CC2(C)C)n1` [Compound 322], the “Corrector Assay A % activity” value is reported as “++ (++ is 30-60%)” and the EC50 is below 1000 nM.

With `COC(=O)NCc1ccnc(C2CC[C@@H]3CN(c4nc(C(C)(C)C)ccc4C(=O)NS(=O)(=O)c4cccc(n4)N2)C(C)(C)C3)c1` (single isomer, unassigned) [Compound 108], the “Corrector Assay A % activity” value was “++ (++ is 30-60%)” and the EC50 was below 1000 nM.

Turning to `CC(C)(C)CCOc1cccc(-c2ccc3c(n2)N2C[C@@H](CC[C@H](c4cccc(C(F)(F)F)n4)Nc4cccc(n4)S(=O)(=O)NC3=O)CC2(C)C)n1` [Compound 304, (14S,17R)-8-[6-(3,3-dimethylbutoxy)pyridin-2-yl]-12,12-dimethyl-17-[6-(trifluoromethyl)pyridin-2-yl]-2λ^6-thia-3,9,11,18,23-pentaazatetracyclo[17.3.1.111,14.05,10]tetracosa-1(22),5,7,9,19(23),20-hexaene-2,2,4-trione], the “Corrector Assay A % activity” value is on record as “++ (++ is 30-60%)” and the EC50 is below 1000 nM.

Regarding `CN(C)Cc1ccnc([C@@H]2CC[C@@H]3CN(c4nc(C(C)(C)C)ccc4C(=O)NS(=O)(=O)c4cccc(n4)N2)C(C)(C)C3)c1` (single isomer, unassigned) [Compound 86], the “Corrector Assay A % activity” value was “++ (++ is 30-60%)” and the EC50 was below 1000 nM.

As for `CC(C)c1ccc(-c2ccc3c(n2)N2C[C@@H](CC[C@H](c4ccccn4)Nc4cccc(n4)S(=O)(=O)NC3=O)CC2(C)C)cc1` [Compound 347], the “Corrector Assay A % activity” value is listed as “+++ (+++ is >60%)” and the EC50 is below 1000 nM.

For `CC(C)(C)CCc1ccc2c(n1)N1C[C@@H](CC[C@H](c3ccccn3)Nc3cccc(n3)S(=O)(=O)NC2=O)CC1(C)C` [Compound 105, (14S,17R)-8-(3,3-dimethylbutyl)-12,12-dimethyl-17-(pyridin-2-yl)-2λ^6-thia-3,9,11,18,23-pentaazatetracyclo[17.3.1.111,14.05,10]tetracosa-1(22),5,7,9,19(23),20-hexaene-2,2,4-trione], the “Corrector Assay A % activity” value is on record as “+++ (+++ is >60%)” and the EC50 is below 1000 nM.

As for `CN(C)Cc1ccnc([C@@H]2CC[C@@H]3CN(c4nc(C(C)(C)C)ccc4C(=O)NS(=O)(=O)c4cccc(n4)N2)C(C)(C)C3)c1` (single isomer, unassigned) [Compound 87], the “Corrector Assay A % activity” value is recorded as “+ (+ is <30%)” and the EC50 is below 1000 nM.

For `CC(C)(C)c1ccc2c(n1)N1C[C@@H](CC[C@H](c3cc(C(F)(F)F)ccn3)Nc3cccc(n3)S(=O)(=O)NC2=O)CC1(C)C` (single isomer, unassigned) [Compound 93], the “Corrector Assay A % activity” value is recorded as “+++ (+++ is >60%)” and the EC50 was below 1000 nM.

Regarding `CC(C)(C)c1ccc2c(n1)N1C[C@@H](CCC(c3ccc(N4CCOCC4)cn3)Nc3cccc(n3)S(=O)(=O)NC2=O)CC1(C)C` (stereo partly drawn) [Compound 199], the “Corrector Assay A % activity” value is on record as “+++ (+++ is >60%)” and the EC50 is below 1000 nM.

With `CC(C)(C)c1ccc2c(n1)N1CC(CCCNc3cncc(n3)S(=O)(=O)NC2=O)CC1(C)C` (single isomer, unassigned) [Compound 252, 8-tert-butyl-12,12-dimethyl-2λ^6-thia-3,9,11,18,21,23-hexaazatetracyclo[17.3.1.111,14.05,10]tetracosa-1(22),5,7,9,19(23),20-hexaene-2,2,4-trione], the “Corrector Assay A % activity” value is listed as “++ (++ is 30-60%)” and the EC50 was below 1000 nM.

In the case of `CC(C)(C)c1ccc2c(n1)N1C[C@@H](CCC(c3ccc(-c4cc[nH]n4)cn3)Nc3cccc(n3)S(=O)(=O)NC2=O)CC1(C)C` (stereo partly drawn) [Compound 129], the “Corrector Assay A % activity” value is reported as “+++ (+++ is >60%)” and the EC50 was below 1000 nM.

Regarding `CC(C)(C)c1ccc2c(n1)N1C[C@@H](CCC(C)(c3ccccn3)Nc3cccc(n3)S(=O)(=O)NC2=O)CC1(C)C` (single isomer, unassigned) [Compound 45], the “Corrector Assay A % activity” value was “++ (++ is 30-60%)” and the EC50 was below 1000 nM.

On to `Cn1ccc(C2CC[C@@H]3CN(c4nc(C(C)(C)C)ccc4C(=O)NS(=O)(=O)c4cccc(n4)N2)C(C)(C)C3)n1` (single isomer, unassigned) [Compound 278], for which the “Corrector Assay A % activity” value was “++ (++ is 30-60%)” and the EC50 was below 1000 nM.

With `CC(C)(C)c1ccc([C@@H]2CC[C@@H]3CN(c4nc(C(C)(C)C)ccc4C(=O)NS(=O)(=O)c4cccc(n4)N2)C(C)(C)C3)cc1` (single isomer, unassigned) [Compound 38], the “Corrector Assay A % activity” value is recorded as “+++ (+++ is >60%)” and the EC50 is below 1000 nM.

Turning to `CC(C)(C)c1ccc2c(n1)N1C[C@@H](CCC(c3ccc(-c4cn[nH]c4)cn3)Nc3cccc(n3)S(=O)(=O)NC2=O)CC1(C)C` (stereo partly drawn) [Compound 136], the “Corrector Assay A % activity” value was “+++ (+++ is >60%)” and the EC50 was below 1000 nM.

With `CC(C)(C)c1ccnc([C@H]2CC[C@@H]3CN(c4nc(-c5cccc(OCC6CCC6)n5)ccc4C(=O)NS(=O)(=O)c4cccc(n4)N2)C(C)(C)C3)c1` [Compound 302, (14S,17R)-17-(4-tert-butylpyridin-2-yl)-8-[6-(cyclobutylmethoxy)pyridin-2-yl]-12,12-dimethyl-2λ^6-thia-3,9,11,18,23-pentaazatetracyclo[17.3.1.111,14.05,10]tetracosa-1(22),5,7,9,19(23),20-hexaene-2,2,4-trione], the “Corrector Assay A % activity” value is “+++ (+++ is >60%)” and the EC50 was below 1000 nM.

On to `CC(C)(C)c1ccc2c(n1)N1C[C@@H](CC[C@@H](c3cc(CCN)ccn3)Nc3cccc(n3)S(=O)(=O)NC2=O)CC1(C)C` (single isomer, unassigned) [Compound 84], for which the “Corrector Assay A % activity” value is given as “+++ (+++ is >60%)” and the EC50 was below 1000 nM.

As for `CC(C)(C)c1ccc2c(n1)N1C[C@@H](CCC(c3cc(N)ccn3)Nc3cccc(n3)S(=O)(=O)NC2=O)CC1(C)C` (single isomer, unassigned) [Compound 48], the “Corrector Assay A % activity” value is listed as “++ (++ is 30-60%)” and the EC50 fell in the range of 1000 to 3000 nM.

With `CC(C)(C)OC(=O)N1CCC2(CC1)CC(NC(=O)[C@@H]1CC[C@@H]3CN(c4nc(C(C)(C)C)ccc4C(=O)NS(=O)(=O)c4cccc(n4)N1)C(C)(C)C3)C2` [Compound 227], the “Corrector Assay A % activity” value was “+ (+ is <30%)” and the EC50 is 1000 to 3000 nM.
